Columns and labels:
[1] = Permeability across the rabbit amniotic membrane (side by side diffusion chamber); type: in vitro ADME; details: in 1 hour, 37° C.
Procedure: The permeability of the G4-PAMAM-FITC across the normal rabbit amniotic membrane and endotoxin treated rabbit amniotic membrane was studied using a side by side Permegear diffusion chamber at 37° C. for 48 hours. Endotoxin treated membranes were used to mimic the condition of E. coli infection in uterus. The freshly excised rabbit membranes obtained after sacrificing the rabbit was placed in between the donor and receptor chamber.

[2] = Brain biodistribution of FITC-G4-OH after subarachnoid/subdural injection (microscopy, HPLC); type: in vivo, rabbit; details: 24 hours after injection into CSF
Procedure: Animals in each group were euthanized 24 hours after subarachnoid administration of FITC-G4-OH with an overdose of pentobarbital (120 mg/kg administered intra-peritoneal). Following administration of the drug, animals were secured to a stainless steel surgical apparatus, the heart was exposed rapidly and a butterfly needle was inserted and secured in the left apex of the heart, the vena cava was incised and perfusion was initiated. Animals were perfused under pressure with 30 mL chilled physiological saline (0.9%) and 120 mL of 4% paraformaldehyde in phosphate buffer (0.1 M, pH 7.4) at a constant rate of 5 ml/min using a constant pressure pump, brains were removed and immersed in the same fixative for 48 hours, cryoprotected using graded solutions of sucrose and frozen at −80° C. until they were sectioned. […]
Brain tissue samples weighing approximately 1 mg were collected from healthy pups and CP pups and used for analysis. […] The samples were analyzed by HPLC and the amount of dendrimer-FITC quantified using the standard calibration curve for FITC-G4-OH. To estimate the fluorescence as a measure of concentration of FITC-G4-OH localized in hippocampus or cortex, the samples were analyzed by reverse phase-HPLC and the amount was quantified using the standard calibration curve for FITC-G4-OH. […]

[3] = Transmembrane transport and permeability, chorioamnion; type: in vitro ADME, human; details: 0.3 mg/mL
From the text: (§1) All human fetal membrane specimens were obtained at the time of cesarean section for obstetrical indications. The fetal membrane comprising chorioamniotic membrane (intact membranous tissue containing both amnion and chorion together) (n=7) and amnion (n=7) and chorion (n=7) were separately procured (size 6×9″). Each membrane was cut into 9 pieces for the 9 sets of diffusion chamber. The fresh membranes were collected immediately after the delivery, washed with PBS to remove the blood and stored in PBS until (˜1 h at 4° C.) it was mounted on the diffusion chamber (37±0.5° C.). Excess membranes were trimmed. The diffusion experiments were performed for 48 hours by mounting the membrane in the chamber to study the transport across the membranes. In all the experiments with chorioamniotic membrane the choriodecidua (maternal side) was placed facing the donor chamber and the amnionic epithelium (fetal side) was facing the receptor chamber. The chorion and amnion were mechanically separated by gently pulling the two membranes apart. For the chorion, the side attached to amnion was placed facing the receptor chamber and for the amnion the side attached to the chorion was placed facing the donor chamber in the diffusion apparatus. For histological evaluation, the tissue samples were collected at 0.5, 1, 2, 3 and 4 hours for and were fixed in 10% formalin overnight. Further, some sections were analyzed by hematoxylin and eosin (H & E) staining. The membrane thickness was measured using the Mitutoyo Super Caliper by placing the respective membranes between the two glass slides and subtracting the thickness of the glass slides without the membrane.
Permeation experiments were carried out using a two-chamber (donor and receptor) side-by-side Permegear diffusion cell with a chamber volume of 3 mL and with a diameter of 13 mm and a diffusional area of 1.32 cm^2. The fetal membranes (chorion and amnion together, amnion and chorion) each (n=9) were mounted between two halves of the donor and receptor cell (9 sets), which were further clamped together and sealed tightly with the rubber packing at the end of each glass chamber. […] The donor cell (volume 3 mL) was filled with solution of compounds whose permeability was evaluated. […] The concentration of compound in the receptor medium was determined using a Molecular Devices SpectroMax M2, UV visible and Fluorescent plate reader at ex 495/em 521. The cumulative amount of compound transported across the membrane in the receptor cell was determined using a calibration curve (a transport of 50% corresponds equilibrium achieved). […]
(§2) [formula] […] The thickness of the chorioamnion, chorion and amnion was 0.22 mm, 0.16 mm and 0.05 mm respectively (n=7), as measured with the help of Mitutoyo Super Caliper. […]

[4] = Transmembrane transport and permeability, amnion; type: in vitro ADME, human
From the text: as §1
(§3) Permeation experiments were carried out using a two-chamber (donor and receptor) side-by-side Permegear diffusion cell with a chamber volume of 3 mL and with a diameter of 13 mm and a diffusional area of 1.32 cm^2. The fetal membranes (chorion and amnion together, amnion and chorion) each (n=9) were mounted between two halves of the donor and receptor cell (9 sets), which were further clamped together and sealed tightly with the rubber packing at the end of each glass chamber. The receptor cell (volume 3 mL) was filled with sterile PBS (pH 7.4). The donor cell (volume 3 mL) was filled with solution of compounds whose permeability was evaluated. […] The system was maintained at 37° C. by using a circulating water bath and a jacket surrounding each cell. The donor and receiving medium was continuously stirred (600 rpm) with a magnetic bar to avoid stagnant aqueous diffusion layer effects. Aliquots (200 μL) were collected from the receptor cell every 30 min till first 6 hours and at predetermined intervals thereafter and replaced with equal volume of PBS to maintain sink conditions throughout the study. […] The concentration of compound in the receptor medium was determined using a Molecular Devices SpectroMax M2, UV visible and Fluorescent plate reader at ex 495/em 521. The cumulative amount of compound transported across the membrane in the receptor cell was determined using a calibration curve (a transport of 50% corresponds equilibrium achieved). All the experiments were conducted in dark room. All experiments were done in triplicate and the results are reported as mean±STDev.
[formula] To determine the permeability coefficient, P, a plot of −V/2A ln (1−2Ct/C0) against t was constructed and linear fitting was performed. The slope of the linear portion of the graph yields a permeability coefficient. The thickness of the chorioamnion, chorion and amnion was 0.22 mm, 0.16 mm and 0.05 mm respectively (n=7), as measured with the help of Mitutoyo Super Caliper. […] The FIGS. 93A-C and FIG. 94 show the plots used for calculation of the permeability and the correlation in all the cases ranged from 0.96 to 0.99.

[5] = Transmembrane transport and permeability, chorion; type: in vitro ADME, human; details: 0.3 mg/mL
From the text: as §1, §3, §2

[6] = not told; cited from earlier work

Compound	crossed the membrane [1] [%]	regional and cellular distribution in brain [2]	Permeability coefficient, Chorioamnion [3]	Permeability coefficient, Amnion ([4]; 0.3 mg/mL)	transport across amnion ([4]; in 2 hours, 0.3 mg/mL) [%]	transport across amnion ([4]; in 5 hours) [%]	Permeability coefficient, Chorion [5]	in vitro permeability [6]
fluorescein isothiocyanate [FITC, reference compound]	50	non-specific uptake in all layers of the cortex and ventricular region	7.93×10^−7 cm^2/s	2.26×10^−6 cm^2/s	49	50	1.32×10^−6 cm^2/s	
CC(C)(N)C(=O)O [2-aminoisobutyrate]								1.5×10^−6 cm^2/s
